Here are results for 24 molecules from US20230129359A1, “MUSCARINIC RECEPTOR 4 ANTAGONISTS AND METHODS OF USE” (Neurocrine Biosciences, Inc., priority 2020, published 2023).

The assay addresses T1, human M4 receptor (Homo sapiens, UniProt P08173).
T1 construct: expressed in transfected cells; host or cells: CHO cells
T1 sequence (P08173 1-479): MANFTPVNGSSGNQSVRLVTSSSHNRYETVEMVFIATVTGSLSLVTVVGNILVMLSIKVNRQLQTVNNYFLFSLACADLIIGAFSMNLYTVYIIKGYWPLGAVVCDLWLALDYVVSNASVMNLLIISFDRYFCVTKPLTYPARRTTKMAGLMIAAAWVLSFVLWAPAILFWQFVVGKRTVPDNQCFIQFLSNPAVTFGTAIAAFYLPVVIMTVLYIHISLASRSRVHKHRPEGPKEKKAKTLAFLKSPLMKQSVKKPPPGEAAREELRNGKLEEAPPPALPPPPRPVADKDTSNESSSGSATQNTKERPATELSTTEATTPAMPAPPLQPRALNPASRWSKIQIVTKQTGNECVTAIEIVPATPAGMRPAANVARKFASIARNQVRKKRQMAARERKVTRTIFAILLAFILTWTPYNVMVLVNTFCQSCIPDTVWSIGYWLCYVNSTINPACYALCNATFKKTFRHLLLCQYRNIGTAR
Description: Radioligand ([3H]N-methylscopolamine) binding assay, membranes from CHO cells expressing human M4 receptor. The following applies: Ki against human M4 receptor; membranes from CHO cells; tritiated N-methylscopolamine 1.5 nM; read-out: K. As for the experimental part: Binding affinity (Ki) for the compounds was measured by inhibition of radioligand binding to membranes from CHO cells expressing human M4 receptor. Membranes were prepared by nitrogen cavitation and differential centrifugation as previously described (Hoare et al., Mol. Pharmacol. 2003 March; 63(3): 751-65). The radioligand employed was tritiated N-methylscopolamine, used at a concentration of 1.5 nM. A dose-response of twelve concentrations of compound was used, ranging from […]. The assay buffer was 50 mM HEPES, 100 mM NaCl, 5 mM MgCl2, 1 mM ethylenediaminetetraacetic acid, pH-adjusted to pH 7.4. Membranes, radioligand and compound were incubated together for 90 minutes at 37° C., in a total volume of 150 μL in a 96-well plate. Receptor-bound radioligand was then collected by harvesting the assay over glass fiber filters pretreated with polyethylenimine to trap the cell membranes, using rapid vacuum filtration. Harvesting and radioactivity counting was conducted as previously described (see, e.g., Hoare et al., Mol. Pharmacol. 2003 63(3):751-65); Erratum at Mol. Pharmacol. 2005 July; 68(1): 260).
Turning to `C[C@@H]1CN(c2ncc(C(F)(F)F)cn2)C[C@H](C)N1C(=O)NC1CC2(C1)CN(CC1CC(F)(F)C1)C2` [Compound 333, (2R,6S)-N-{2-[(3,3-difluorocyclobutyl)methyl]-2-azaspiro[3.3]heptan-6-yl}-2,6-dimethyl-4-[5-(trifluoromethyl)pyrimidin-2-yl]piperazine-1-carboxamide], the Ki was 0.1 to 1 µM.

For `C[C@@H]1CN(c2ncc(C(F)(F)F)cn2)C[C@H](C)N1C(=O)NC1CC2(C1)CN(CC13CC4CC(CC(C4)C1)C3)C2` [Compound 327, (2R,6S)-N-[2-(adamantan-1-ylmethyl)-2-azaspiro[3.3]heptan-6-yl]-2,6-dimethyl-4-[5-(trifluoromethyl)pyrimidin-2-yl]piperazine-1-carboxamide], the Ki was in the range of 0.01 to 0.1 µM.

On to `C[C@@H]1CN(c2cnc(C(F)(F)F)cn2)C[C@H](C)N1C(=O)NC1CC2(C1)CN(Cc1ccccc1)C2` [Compound 62, (2R,6S)—N-{2-Benzyl-2-azaspiro[3.3]heptan-6-yl}-2,6-dimethyl-4-[5-(trifluoromethyl)pyrazin-2-yl]piperazine-1-carboxamide], for which the Ki lay in the range of 0.01 to 0.1 µM.

Turning to `C[C@@H]1CN(c2cnc(C(F)(F)F)cn2)C[C@H](C)N1C(=O)NCC1CC2(C1)CN(Cc1ccccc1)C2` [Compound 67, (2R,6S)-N-({2-benzyl-2-azaspiro[3.3]hpetan-6-yl}methyl)-2,6-dimethyl-4-[5-(trifluoromethyl)pyrazin-2-yl]piperazine-1-carboxamide], the Ki fell in the range of 0.1 to 1 µM.

Consider `C[C@@H]1CN(c2cnc3cc(C(F)(F)F)ccc3n2)[C@@H](C)CN1C(=O)OC1CC2(C1)CN(Cc1ccccc1)C2` [Compound 380, 2-benzyl-2-azaspiro[3.3]heptan-6-yl (2R,5S)-2,5-dimethyl-4-[6-(trifluoromethyl)quinoxalin-2-yl]piperazine-1-carboxylate], for which the Ki is less than 0.01 µM.

For the molecule `C[C@@H]1CN(c2ncc(C(F)(F)F)cn2)C[C@H](C)N1C(=O)OC1(C(F)F)CC2(CN(Cc3ccccc3)C2)C1` [Compound 341, 2-benzyl-6-(difluoromethyl)-2-azaspiro[3.3]heptan-6-yl (2R,6S)-2,6-dimethyl-4-[5-(trifluoromethyl)pyrimidin-2-yl]piperazine-1-carboxylate], the Ki fell in the range of 0.01 to 0.1 µM.

Take `O=C(OC1CC2(C1)CN(Cc1ccccc1)C2)N1C2CC1CN(c1cnc(C(F)(F)F)cn1)C2` [Compound 110, 2-benzyl-2-azaspiro[3.3]heptan-6-yl 3-[5-(trifluoromethyl)pyrazin-2-yl]-3,6-diazabicyclo[3.1.1]heptane-6-carboxylate]: the Ki lay in the range of 0.1 to 1 µM.

Turning to `C[C@@H]1CN(c2nc3ccc(F)cc3s2)C[C@H](C)N1C(=O)NC1CC2(C1)CN(Cc1ccccc1)C2` [Compound 231, (2R,6S)-N-{2-benzyl-2-azaspiro[3.3]heptan-6-yl}-4-(6-fluoro-1,3-benzothiazol-2-yl)-2,6-dimethylpiperazine-1-carboxamide], the Ki was less than 0.01 µM.

Regarding `C[C@@H]1CN(c2ncccc2C(F)(F)F)C[C@@H](C)N1C(=O)OC1CC2(C1)CN(Cc1ccccc1)C2` [Compound 190, 2-benzyl-2-azaspiro[3.3]heptan-6-yl (2R,6R)-2,6-dimethyl-4-[3-(trifluoromethyl)pyridin-2-yl)piperazine-1-carboxylate], the Ki lay in the range of 0.1 to 1 µM.

Turning to `C[C@@H]1CN(c2ncc3cc(F)ccc3n2)C[C@H](C)N1C(=O)OC1CC2(C1)CN(Cc1ccccc1)C2` [Compound 453, 2-benzyl-2-azaspiro[3.3]heptan-6-yl (2R,6S)-4-(6-fluoroquinazolin-2-yl)-2,6-dimethylpiperazine-1-carboxylate], the Ki lay in the range of 0.01 to 0.1 µM.

As to `C[C@@H]1CN(c2ncc(C(F)(F)F)cn2)CCN1C(=O)NC1CC2(C1)CN(Cc1ccccc1)C2` [Compound 7, (2R)-N-{2-benzyl-2-azaspiro[3.3]heptan-6-yl}-2-methyl-4-[5-(trifluoromethyl)pyrimidin-2-yl]piperazine-1-carboxamide], the Ki was 0.01 to 0.1 µM.

As to `C[C@@H]1CN(c2cc(F)c(F)c(F)c2)C[C@H](C)N1C(=O)NC1CC2(C1)CN(Cc1ccccc1)C2` [Compound 45, (2R,6S)-N-{2-benzyl-2-azaspiro[3.3]heptan-6-yl}-2,6-dimethyl-4-(3,4,5-trifluroophenyl)piperazine-1-carboxamide], the Ki is less than 0.01 µM.

Take `C[C@@H]1CN(c2cnc3cc(F)ccc3n2)[C@@H](C)CN1C(=O)OC1CC2(C1)CN(Cc1ccccc1)C2` [Compound 363, 2-benzyl-2-azaspiro[3.3]heptan-6-yl (2R,5S)-4-(6-fluoroquinoxalin-2-yl)-2,5-dimethylpiperazine-1-carboxylate]: the Ki lay in the range of 0.01 to 0.1 µM.

Turning to `C[C@@H]1CN(c2ccc(C(F)(F)F)cc2)C[C@H](C)N1C(=O)NC1CC2(C1)CN(Cc1ccccc1)C2` [Compound 47, (2R,6S)-N-{2-benzyl-2-azaspiro[3.3]heptan-6-yl}-2,6-dimethyl-4-[4-(trifluoromethyl)phenyl]pipera-zine-1-carboxamide], the Ki is less than 0.01 µM.

For the molecule `C[C@@H]1CN(c2ncc(C#N)cn2)C[C@@H](C)N1C(=O)OC1CC2(C1)CN(Cc1ccccc1)C2` [Compound 159, 2-benzyl-2-azaspiro[3.3]heptan-6-yl (2R,6R)-4-(5-cyanopyrimidin-2-yl)-2,6-dimethylpiperazine-1-carboxylate], the Ki lay in the range of 0.1 to 1 µM.

`C[C@@H]1CN(c2ncc(C(F)(F)F)cn2)C[C@H](C)N1C(=O)OC1CC2(C1)CN(CC1CC3C=CC1C3)C2` (stereo partly drawn) [Compound 155, 2-{bicyclo[2.2.1]hept-5-en-2-ylmethyl}-2-azaspiro[3.3]heptan-6-yl (2R,6S)-2,6-dimethyl-4-[5-(trifluoromethyl)pyrimidin-2-yl]piperazine-1-carboxylate]: the Ki is 0.01 to 0.1 µM.

On to `O=C(OC1CC2(C1)CN(Cc1ccccc1)C2)N1CCN(c2ccc(C(F)(F)F)cn2)CC1` [Compound 121, 2-benzyl-2-azaspiro[3.3]heptan-6-yl 4-[5-(trifluoromethyl)pyridin-2-yl]piperazine-1-carboxylate], for which the Ki fell in the range of 0.1 to 1 µM.

`C[C@@H]1CN(c2ncc(C(F)(F)F)cn2)C[C@@H](C)N1C(=O)NC1CC2(C1)CN(Cc1ccc(F)cc1)C2` [Compound 328, (2R,6R)-N-{2-[(4-fluorophenyl)methyl]-2-azaspiro[3.3]heptan-6-yl}-2,6-dimethyl-4-[5-(trifluoromethyl)pyrimidin-2-yl]piperazine-1-carboxamide]: the Ki lay in the range of 0.01 to 0.1 µM.

In the case of `C[C@@H]1CN(c2ccc(C(F)(F)F)cc2)C[C@@H](C)N1C(=O)NC1CC2(C1)CN(Cc1ccccc1)C2` [Compound 51, (2R,6R)-N-{2-benzyl-2-azaspiro[3.3]heptan-6-yl}-2,6-dimethyl-4-[4-(trifluoromethyl)phenyl]pipera-zine-1-carboxamide], the Ki was less than 0.01 µM.

As to `C[C@@H]1CN(c2cnc(C(F)(F)F)cn2)[C@@H](C)CN1C(=O)NC1CC2(C1)CN(Cc1ccc(F)cc1)C2` [Compound 269, (2R,5S)-N-{2-[(4-fluorophenyl)methyl]-2-azaspiro[3.3]heptan-6-yl}-2,5-dimethyl-4-[5-(trifluoromethyl)pyrazin-2-yl]piperazine-1-carboxamide], the Ki fell in the range of 0.01 to 0.1 µM.

For `C[C@@H]1CN(c2ccc(C(F)(F)F)nc2)C[C@H](C)N1C(=O)OC1CC2(C1)CN(Cc1ccccc1)C2` [Compound 191, 2-bnezyl-2-azaspiro[3.3]heptan-6-yl (2R,6S)-2,6-dimethyl-4-[6-(trifluoromethyl)pyridin-3-yl]piperazine-1-carboxylate], the Ki lay in the range of 0.01 to 0.1 µM.

Turning to `C[C@@H]1CN(c2cnc3ccccc3n2)[C@@H](C)CN1C(=O)OC1CC2(C1)CN(Cc1ccccc1)C2` [Compound 187, 2-benzyl-2-azaspiro[3.3]heptan-6-yl (2R,5S)-2,5-dimethyl-4-(quinoxalin-2-yl)piperazine-1-carboxylate], the Ki was less than 0.01 µM.

As for `C[C@@H]1CN(c2ncc3ccccc3n2)C[C@H](C)N1C(=O)OC1CC2(C1)CN(Cc1ccncc1)C2` [Compound 421, 2-(pyridin-4-ylmethyl)-2-azaspiro[3.3]heptan-6-yl (2R,6S)-2,6-dimethyl-4-(quinazolin-2-yl)piperazine-1-carboxylate], the Ki was 0.1 to 1 µM.

Turning to `[2H]c1c([2H])c([2H])c(C([2H])([2H])N2CC3(CC(OC(=O)N4[C@H](C)CN(c5ncc(C(F)(F)F)cn5)C[C@@H]4C)C3)C2)c([2H])c1[2H]` [Compound 387, 2-[(^2H5)phenyl(^2H2)methyl]-2-azaspiro[3.3]heptan-6-yl (2R,6S)-2,6-dimethyl-4-[5-(trifluoromethyl)pyrimidin-2-yl]piperazine-1-carboxylate], the Ki is less than 0.01 µM.
